Assay results taken from patent US20240228499A1, “MASP-2 INHIBITORS AND METHODS OF USE” (Omeros Corporation, priority 2022, published 2024).
Where a name gives a salt, the structure may show the parent alone.

Assays:
HSCT-TMA = conditions: once-weekly treatment, HSCT-TMA patients; cited from earlier work
severe IgA nephropathy = conditions: cited from earlier work
[1] = tested on: microvascular endothelial cell injury; conditions: tissue culture model; cited from earlier work
[2] = tested on: Lectin Pathway Activation (LPA) in human serum; assay: Lectin pathway activation (LPA) assay in human serum, C4 deposition on mannan-coated plate; type: biochemical; conditions: 1% pooled human serum, 55 minutes, room temperature
Description: A Microtiter ELISA plate (Nunc-Maxi Sorp; Sigma-Aldrich®, USA) was coated with mannan sourced from Saccharomyces cerevisiae (Sigma-Aldrich®, USA) in a coating buffer comprising 33.3 mM Na2CO3 and 166.67 mM NaHCO3. The plates were incubated at room temperature overnight. Subsequently, the plates were blocked with a 5% bovine serum albumin solution (Sigma-Aldrich®, USA) prepared in PBST for 2 hours at room temperature with agitation. Varying concentrations of MASP-2 inhibitors were dispensed onto the empty plate.
To perform the assay, pooled human serum was diluted to 1% in a solution of 20 mM HEPES (pH=7.4), 140 mM NaCl, and 1 mM MgCl2. Then, 40 μl of the diluted human serum was dispensed into each well of the Microtiter ELISA plate and incubated for 55 minutes at room temperature. The C4 deposition on the mannan-coated surface was stopped using an EDTA stop solution (20 mM HEPES, pH=7.4, 140 mM NaCl, and 150 mM EDTA). Subsequently, rabbit anti-Human C4c antibody (Agilent Technologies, USA) prepared in PBST was added, and the plates were incubated at room temperature for 30 minutes with agitation, then washed with PBST, and Goat anti-rabbit IgG(H+L) HRP-conjugated (Southern Biotech®, USA) was added. The plates were again incubated at room temperature for 30 minutes with agitation, and then were washed with PBST. Following this, the Amplex® UltraRed® (Thermo Fischer Sci, USA) substrate solution was added for 16 minutes, followed by the addition of the Amplex® UltraRed® stop solution. The plates' fluorescence was measured using an i3× microplate reader (Molecular Devices, USA) with excitation at 550 nm and emission at 580 nm. The raw data generated from the plate reader was exported to GraphPad Prism® (version 10.0.3), and the non-linear regression curve was generated using the 4-parameter logistic fit equation. All data are reported as pIC50 with a 95% confidence interval.

human a-thrombin = biological target: T1, human a-thrombin (Homo sapiens, UniProt P00734); assay: Enzymatic assay for thrombin (fluorogenic peptide substrate Boc-VPR-AMC); type: biochemical; conditions: room temperature, 20 mM Hepes pH 7.4, 20 min
T1 construct: enzyme (human a-thrombin (BioPharm® Lab.)); purchased BioPharm Lab
Procedure, shortened: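 Human α-thrombin was incubated with serially diluted compound and fluorogenic substrate Boc-VPR-AMC in 20 mM Hepes pH 7.4, 140 mM NaCl, 0.1% Tween 20 at room temperature. The reaction was stopped after 20 min with 0.1 M acetic acid and fluorescence read. % activity was normalized to DMSO and no-enzyme controls, and IC50 was taken as equivalent to Ki.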

MASP-2 (CCP1-CCP2-SP) = biological target: T2, MASP-2 (CCP1-CCP2-SP) (Homo sapiens, UniProt O00187); assay: Enzymatic assay for MASP-2 inhibitory activity (fluorogenic substrate); type: biochemical; conditions: room temperature, 20 mM Hepes pH 7.4, 20 min
T2 construct: 15 μL of Enzyme MASP-2 (CCP1-CCP2-SP) in Assay Buffer
Procedure, shortened: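 Human MASP-2 CCP1-CCP2-SP construct with a C2-cleavage-site fluorogenic substrate in 20 mM HEPES pH 7.4, 140 mM NaCl, 0.1% Tween 20, 20 min at room temperature before acetic acid stop. Activity normalised to DMSO and no-enzyme controls; IC50 taken as equivalent to Ki under linear conditions.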

T2 sequence (O00187 287-686 limits assumed): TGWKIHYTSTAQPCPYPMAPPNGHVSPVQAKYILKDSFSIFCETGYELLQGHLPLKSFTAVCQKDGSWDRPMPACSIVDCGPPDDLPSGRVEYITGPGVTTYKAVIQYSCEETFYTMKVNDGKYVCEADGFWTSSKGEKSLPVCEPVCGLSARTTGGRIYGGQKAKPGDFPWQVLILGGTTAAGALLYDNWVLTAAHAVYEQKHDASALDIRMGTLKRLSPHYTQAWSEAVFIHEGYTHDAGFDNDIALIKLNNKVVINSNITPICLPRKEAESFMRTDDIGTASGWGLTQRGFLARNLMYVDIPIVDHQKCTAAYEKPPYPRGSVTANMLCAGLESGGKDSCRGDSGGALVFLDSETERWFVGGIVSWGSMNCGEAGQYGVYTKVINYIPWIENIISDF

Row | Compound | response rate based on improvement in laboratory TMA markers and clinical benefit (HSCT-TMA) | tolerability (severe IgA nephropathy; human, in vivo) | urine protein excretion decrease from baseline (severe IgA nephropathy; once-weekly treatment, after 3 years of follow-up) | annualized rate of kidney function decline (severe IgA nephropathy; once-weekly treatment, after 3 years of follow-up, matched external comparator group 8.6) | effect on HSCT-TMA plasma-mediated endothelial damage [1] | IC50 [2] | Ki (human a-thrombin) | Ki (MASP-2 (CCP1-CCP2-SP))
1 | narsoplimab | 61% | well tolerated | 38% | 5.2 mL/min/yr | reduce HSCT-TMA plasma-mediated endothelial damage |  |  | 
2 | Cc1cc(C)cc(CNc2cnc3n(c2=O)[C@H](C(=O)N[C@@H]2CCc4nc(N)ccc42)CC3)c1 [Compound 81, (S)—N—((R)-2-amino-6,7-dihydro-5H-cyclopenta[b]pyridin-5-yl)-3-((3,5-dimethylbenzyl)amino)-4-oxo-4,6,7,8-tetrahydropyrrolo[1,2-a]pyrimidine-6-carboxamide] |  |  |  |  |  | < 500 nM | 500 to 2500 nM | < 500 nM
3 | Cc1ccc(F)c(CNc2cnc3n(c2=O)[C@H](C(=O)NCc2cc4c(s2)CNC4)CC3)c1 [Compound 50, (S)—N-((5,6-dihydro-4H-thieno[2,3-C]pyrrol-2-yl)methyl)-3-((2-fluoro-5-methylbenzyl)amino)-4-oxo-4,6,7,8-tetrahydropyrrolo[1,2-a]pyrimidine-6-carboxamide, di-trifluoroacetate] |  |  |  |  |  | < 500 nM | 2500 to 10000 nM | < 500 nM
4 | Cc1cccc(CNc2cnc3n(c2=O)[C@H](C(=O)N[C@@H]2CCc4nc(N)ccc42)CC3)c1 [Compound 82, (S)—N—((R)-2-amino-6,7-dihydro-5H-cyclopenta[b]pyridin-5-yl)-3-((3-methylbenzyl)amino)-4-oxo-4,6,7,8-tetrahydropyrrolo[1,2-a]pyrimidine-6-carboxamide] |  |  |  |  |  | < 500 nM | 500 to 2500 nM | < 500 nM
5 | Cc1nc(N)ccc1CNC(=O)[C@@H]1CCc2ncc(NCc3ccc(-n4cccn4)cc3)c(=O)n21 [Compound 44, (S)-3-((4-(1H-pyrazol-1-yl)benzyl)amino)-N-((6-amino-2-methylpyridin-3-yl)methyl)-4-oxo-4,6,7,8-tetrahydropyrrolo[1,2-a]pyrimidine-6-carboxamide, trifluoroacetate] |  |  |  |  |  | < 500 nM | 10000 to 25000 nM | < 500 nM
6 | Cc1cc(C)cc(CNc2cnc3n(c2=O)[C@H](C(=O)N[C@H](C)c2ccc(N)nc2C)CC3)c1 [Compound 64, (S)-N-((R)-1-(6-amino-2-methylpyridin-3-yl)ethyl)-3-((3,5-dimethylbenzyl)amino)-4-oxo-4,6,7,8-tetrahydropyrrolo[1,2-a]pyrimidine-6-carboxamide] |  |  |  |  |  | < 500 nM | 10000 to 25000 nM | < 500 nM
7 | Cc1cc(Cl)cc(CNc2cnc3n(c2=O)[C@H](C(=O)NCc2cnc4c(c2)CNC4)CC3)c1 [Compound 65, (S)-3-((3-chloro-5-methylbenzyl)amino)-N-((6,7-dihydro-5H-pyrrolo[3,4-b]pyridin-3-yl)methyl)-4-oxo-4,6,7,8-tetrahydropyrrolo[1,2-a]pyrimidine-6-carboxamide, di-trifluoroacetate] |  |  |  |  |  | < 500 nM | > 25000 nM | < 500 nM
8 | Cc1cc(F)cc(CNc2cnc3n(c2=O)[C@H](C(=O)N[C@H](C)c2ccc(N)nc2)CC3)c1 [Compound 25, (S)—N—((R)-1-(6-aminopyridin-3-yl)ethyl)-3-((3-fluoro-5-methylbenzyl)amino)-4-oxo-4,6,7,8-tetrahydropyrrolo[1,2-a]pyrimidine-6-carboxamide, DI-trifluoroacetate] |  |  |  |  |  | < 500 nM | > 25000 nM | < 500 nM
9 | Cc1cc(F)ccc1CNc1cnc2n(c1=O)[C@H](C(=O)NCc1ccc(N)nc1C)CC2 [Compound 62] |  |  |  |  |  | < 500 nM | 2500 to 10000 nM | < 500 nM
10 | COc1cc(Cl)cc(CNc2cnc3n(c2=O)[C@H](C(=O)N[C@H](C)c2ccc(N)nc2)CC3)c1 [Compound 76, (S)-N-((R)-1-(6-aminopyridin-3-yl)ethyl)-3-((3-chloro-5-methoxybenzyl)amino)-4-oxo-4,6,7,8-tetrahydropyrrolo[1,2-a]pyrimidine-6-carboxamide] |  |  |  |  |  | < 500 nM | 10000 to 25000 nM | < 500 nM
11 | Nc1ccc2c(n1)CC[C@H]2NC(=O)[C@@H]1CCc2ncc(NCc3ccc4c(c3)COC4)c(=O)n21 [Compound 100] |  |  |  |  |  | < 500 nM | 2500 to 10000 nM | < 500 nM
12 | N#CC1C2CC1C2CNc1cnc2n(c1=O)[C@H](C(=O)N[C@@H]1CCc3nc(N)ccc31)CC2 (stereo partly drawn) [Compound 86, (6S)—N—((R)-2-amino-6,7-dihydro-5H-cyclopenta[b]pyridin-5-yl)-3-(((4-cyanobicyclo[1.1.1]pentan-2-yl)methyl)amino)-4-oxo-4,6,7,8-tetrahydropyrrolo[1,2-a]pyrimidine-6-carboxamide] |  |  |  |  |  | < 500 nM | > 25000 nM | < 500 nM
13 | Cc1ccc(CNc2cnc3n(c2=O)[C@H](C(=O)NCc2ccc(N)nc2C)CC3)cc1C [Compound 72, (S)-N-((6-amino-2-methylpyridin-3-yl)methyl)-3-((3,4-dimethylbenzyl)amino)-4-oxo-4,6,7,8-tetrahydropyrrolo[1,2-a]pyrimidine-6-carboxamide] |  |  |  |  |  | < 500 nM | 500 to 2500 nM | < 500 nM
14 | Cc1cc(C)cc(CNc2cnc3n(c2=O)[C@H](C(=O)NCc2cnc4c(c2)CNC4)CC3)c1 [Compound 22, (S)—N-((6,7-dihydro-5H-pyrrolo[3,4-b]pyridin-3-yl)methyl)-3-((3,5-dimethylbenzyl)amino)-4-oxo-4,6,7,8-tetrahydropyrrolo[1,2-a]pyrimidine-6-carboxamide, trifluoroacetate] |  |  |  |  |  | < 500 nM | > 25000 nM | < 500 nM
15 | Cc1ccccc1CNc1cnc2n(c1=O)[C@H](C(=O)NCc1ccc(N)nc1C)CC2 [Compound 54, (S)—N-((6-amino-2-methylpyridin-3-yl)methyl)-3-((2-methylbenzyl)amino)-4-oxo-4,6,7,8-tetrahydropyrrolo[1,2-a]pyrimidine-6-carboxamide] |  |  |  |  |  | < 500 nM | 500 to 2500 nM | < 500 nM
16 | Cc1cc(C)cc(CNc2cnc3n(c2=O)[C@H](C(=O)NCc2cnc4[nH]cc(Cl)c4c2)CC3)c1 [Compound 18, (S)—N-((3-chloro-1H-pyrrolo[2,3-b]pyridin-5-yl)methyl)-3-((3,5-dimethylbenzyl)amino)-4-oxo-4,6,7,8-tetrahydropyrrolo[1,2-a]pyrimidine-6-carboxamide, trifluoracetate] |  |  |  |  |  | < 500 nM | 2500 to 10000 nM | < 500 nM
17 | Cc1cc(C)cc(CNc2cnc3n(c2=O)[C@H](C(=O)NCc2ccc4cncn4c2)CC3)c1 [Compound 20, (S)-3-((3,5-dimethylbenzyl)amino)-N-(imidazo[1,5-a]pyridin-6-ylmethyl)-4-oxo-4,6,7,8-tetrahydropyrrolo[1,2-a]pyrimidine-6-carboxamide] |  |  |  |  |  | < 500 nM | > 25000 nM | < 500 nM
18 | COc1ccc(CNc2cnc3n(c2=O)[C@H](C(=O)NCc2ccc(N)nc2C)CC3)cc1F [Compound 46, (S)-N-((6-amino-2-methylpyridin-3-yl)methyl)-3-((3-fluoro-4-methoxybenzyl)amino)-4-oxo-4,6,7,8-tetrahydropyrrolo[1,2-a]pyrimidine-6-carboxamide, di-trifluoroacetate] |  |  |  |  |  | < 500 nM | 500 to 2500 nM | < 500 nM
